Measurements as given in patent US11326165B1, “Methods and compositions for modulating splicing” (SKYHAWK THERAPEUTICS, INC., priority 2017, dated 2022).

Columns and labels:
A673 cells = experiment: Cell viability and proliferation, A673 cells (crystal violet); type: cell-based; conditions: cell proliferation IC50 in NHDF cells over A673 cells, 72 h
Description: Small molecule splicing modulators were tested in a dose-response assay using A673 cells and NHDF cells.
A673 cells or NHDF cells were first plated in 96-well plastic tissue culture plates (10,000 cells per well). The cells were treated with vehicle alone (DMSO), or increasing concentrations of SMSM compounds for 72 h. Following treatment, cell proliferation was determined using a crystal violet assay. The relative cell proliferation at each concentration was determined.

A375 xenografts = A375 xenografts in nude mice, tumor growth inhibition; type: in vivo
Description: (§1) Studies were performed to assess the effects of in vivo SMSM treatment on glioblastoma, breast, pancreatic, prostate, melanoma, lymphoma and Ewing sarcoma tumors. Studies were also performed to assess the effects of in vivo SMSM treatment on mRNA levels. Immunocompromised nude mice with pre-existing glioblastoma, breast, pancreatic, prostate, melanoma, lymphoma and Ewing sarcoma xenografts were treated with vehicle or SMSMs. Tumor tissues from subcutaneous xenografts were broken into a powder using a BioPulverizer (Biospec Products, Inc.). After SMSM treatment, mRNA was isolated from the xenografts and was analyzed by qRT-PCR.
(§2) Tumor size was measured 2 times per week in two dimensions using a caliper. Studies were terminated when the tumor size in the vehicle treated group reached 2,000 mm^3. Each mouse was bled at 2 hrs after the last dose and at least 50 μl of plasma was collected from each mouse. All of the collected plasma samples and retainer dosing solutions for each dose level were used for bioanalytical measurements. All tumors were also collected and weighed. One necrosis-free tumor fragment of approximately 50 mg was taken from each tumor and flash-frozen for RNA isolation. The remaining tumor was flash frozen for PK analysis.
(§3) The effects of in vivo SMSM treatments on pre-existing subcutaneous glioblastoma, breast, pancreatic, prostate, melanoma, lymphoma and Ewing sarcoma xenografts were assessed. For these in vivo experiments, 1×10^6Raji, A375, A673, MDA-MB-231, BxPC-3, PC-3 or U87 (cells re-suspended in 100 μl PBS were subcutaneously injected into the flanks of nude mice. When the tumor reached approximately 100 mm^3 (volume=(¾)(π)(length/2)(width/2)^2), the treatments indicated in the tables below were initiated.

A673 xenografts = A673 xenografts in nude mice, tumor growth inhibition; type: in vivo; conditions: A673 xenograft (FIGS. 16A-C), 1 mg/kg BID
Description: Dose range and time course studies comparing anti-neoplastic effects of SMSM−167 and SMSM−151 against vehicle were conducted.
Female NCrNu mice were used. Age range of enrolment was 7-10 weeks. A total of 75 animals were for the studies.
The A673 tumor cell line was maintained in vitro as a monolayer culture. […] The cells growing in an exponential growth phase were harvested and counted for tumor inoculation.
Each mouse were inoculated into a right flank with the single cell suspension of 95% viable tumor cells (5×10^6 cells/mouse) in serum-free RPMI 1640 Media for tumor development. Treatments were administered when mean tumor size reached approximately 75 mm^3.
Before commencement of treatment, all animals were weighed and assigned to treatment groups using a randomization procedure. Mice were randomized into groups based upon their tumor sizes to ensure that each group had approximately the same mean tumor size and range of tumor size.
After inoculation, the animals were checked daily for morbidity and mortality. At the time of routine monitoring, the animals were checked for any effects of tumor growth on normal behavior such as mobility, food and water consumption, body weight gain/loss, eye/hair matting and any other abnormal effects. Deaths and observed clinical signs were recorded.
Body weight were measured prior to tumor inoculation and prior to the treatment administration and then daily. Tumor size were measured 2-3 times per week in two dimensions using a caliper, and the volume were expressed in mm^3 using the formula: V=0.5×a×b^2 where a and b are the long and short diameters of the tumor, respectively.
as §2, with “Studies” for “Tumor size was measured 2 times per week in two dimensions using a caliper. Studies”, “plasma were” for “plasma was”
as §1, §2
as §3, with “initiated. […]” for “initiated.”

SMILES: O=C(/C=C/c1cccc(S(=O)(=O)Nc2ccccc2)c1)NO [Belinostat]
- Ratio NHDF/A673 IC50 (A673 cells): ≤10

SMILES: Nc1ccccc1NC(=O)c1ccc(CNc2nccc(-c3cccnc3)n2)cc1 [Mocetinostat]
- Ratio NHDF/A673 IC50 (A673 cells): ≤10

SMILES: Cc1[nH]c2ccccc2c1CCNCc1ccc(/C=C/C(=O)NO)cc1 [Panobinostat]
- Ratio NHDF/A673 IC50 (A673 cells): ≤10

SMILES: CC(/C=C/C(=O)NO)=C\[C@@H](C)C(=O)c1ccc(N(C)C)cc1 [Trichostatin A]
- Ratio NHDF/A673 IC50 (A673 cells): ≤10

SMILES: CCCS(=O)(=O)Nc1ccc(F)c(C(=O)c2c[nH]c3ncc(-c4ccc(Cl)cc4)cc23)c1F [Vemurafenib, vemurafenib, reference compound]
- Tumor Growth Inhibition (TGI) (%) (A375 xenografts; A375 xenograft (FIGS. 17A-B), 50 mg/kg p.o. BID, D4): 9.47%
- Tumor Growth Inhibition (TGI) (%) (A375 xenografts; A375 xenograft (FIGS. 17A-B), 50 mg/kg p.o. BID, D6): 9.98%
- Tumor Growth Inhibition (TGI) (%) (A375 xenografts; A375 xenograft (FIGS. 17A-B), 50 mg/kg p.o. BID, D10): 24.32%
- Tumor Growth Inhibition (TGI) (%) (A375 xenografts; A375 xenograft (FIGS. 17A-B), 50 mg/kg p.o. BID, D13): 50.53%
- Tumor Growth Inhibition (TGI) (%) (A375 xenografts; A375 xenograft (FIGS. 17A-B), 50 mg/kg p.o. BID, D17): 69.66%
- Tumor Growth Inhibition (TGI) (%) (A375 xenografts; A375 xenograft (FIGS. 17A-B), 50 mg/kg p.o. BID, D21): 82.03%
- Tumor Growth Inhibition (TGI) (%) (A375 xenografts; A-375 xenograft (FIGS. 21A-B), 50 mg/kg p.o. BID *21 days, D4): 111.22%
- Tumor Growth Inhibition (TGI) (%) (A375 xenografts; A-375 xenograft (FIGS. 21A-B), 50 mg/kg p.o. BID *21 days, D7): 112.77%
- Tumor Growth Inhibition (TGI) (%) (A375 xenografts; A-375 xenograft (FIGS. 21A-B), 50 mg/kg p.o. BID *21 days, D11): 114.44%
- Tumor Growth Inhibition (TGI) (%) (A375 xenografts; A-375 xenograft (FIGS. 21A-B), 50 mg/kg p.o. BID *21 days, D14): 109.55%
- Tumor Growth Inhibition (TGI) (%) (A375 xenografts; A-375 xenograft (FIGS. 21A-B), 50 mg/kg p.o. BID *21 days, D18): 107.72%
- Tumor Growth Inhibition (TGI) (%) (A375 xenografts; A-375 xenograft (FIGS. 21A-B), 50 mg/kg p.o. BID *21 days, D21): 106.56%

SMILES: CN(c1ccc(-c2ccc(-c3cn[nH]c3)cc2O)nn1)[C@@H]1C[C@H]2CCC[C@@H](C1)N2 [compound 160, 2-(6-(((1R,3s,5S)-9-azabicyclo[3.3.1]nonan-3-yl)(methyl)amino)pyridazin-3-yl)-5-(1H-pyrazol-4-yl)phenol]
- Ratio NHDF/A673 IC50 (A673 cells): >225
- Tumor Growth Inhibition (TGI) (%) (A673 xenografts; Day 3): −0.94%
- Tumor Growth Inhibition (TGI) (%) (A673 xenografts; Day 6): 25.67%
- Tumor Growth Inhibition (TGI) (%) (A673 xenografts; Day 10): 25.67%
- Tumor Growth Inhibition (TGI) (%) (A673 xenografts; Day 13): 42.90%
- Tumor Growth Inhibition (TGI) (%) (A375 xenografts; A375 xenograft (FIGS. 17A-B), 3 mg/kg ip. BID, D4): 33.09%
- Tumor Growth Inhibition (TGI) (%) (A375 xenografts; A375 xenograft (FIGS. 17A-B), 3 mg/kg ip. BID, D6): 92.99%
- Tumor Growth Inhibition (TGI) (%) (A375 xenografts; A375 xenograft (FIGS. 17A-B), 3 mg/kg ip. BID, D10): 109.59%
- Tumor Growth Inhibition (TGI) (%) (A375 xenografts; A375 xenograft (FIGS. 17A-B), 3 mg/kg ip. BID, D13): 105.98%
- Tumor Growth Inhibition (TGI) (%) (A375 xenografts; A375 xenograft (FIGS. 17A-B), 3 mg/kg ip. BID, D17): 99.59%
- Tumor Growth Inhibition (TGI) (%) (A375 xenografts; A375 xenograft (FIGS. 17A-B), 3 mg/kg ip. BID, D21): 94.68%
- Tumor Growth Inhibition (TGI) (%) (A375 xenografts; A375 xenograft (FIGS. 17A-B), 3 mg/kg ip. QD, D4): 3.40%
- Tumor Growth Inhibition (TGI) (%) (A375 xenografts; A375 xenograft (FIGS. 17A-B), 3 mg/kg ip. QD, D6): 47.56%
- Tumor Growth Inhibition (TGI) (%) (A375 xenografts; A375 xenograft (FIGS. 17A-B), 3 mg/kg ip. QD, D10): 44.13%
- Tumor Growth Inhibition (TGI) (%) (A375 xenografts; A375 xenograft (FIGS. 17A-B), 3 mg/kg ip. QD, D13): 40.08%
- Tumor Growth Inhibition (TGI) (%) (A375 xenografts; A375 xenograft (FIGS. 17A-B), 3 mg/kg ip. QD, D17): 45.12%
- Tumor Growth Inhibition (TGI) (%) (A375 xenografts; A375 xenograft (FIGS. 17A-B), 3 mg/kg ip. QD, D21): 53.98%
- Tumor Growth Inhibition (TGI) (%) (A375 xenografts; A375 xenograft (FIGS. 17A-B), 10 mg/kg ip. QD*5day, D4): 72.84%
- Tumor Growth Inhibition (TGI) (%) (A375 xenografts; A375 xenograft (FIGS. 17A-B), 10 mg/kg ip. QD*5day, D6): 118.42%
- Tumor Growth Inhibition (TGI) (%) (A375 xenografts; A375 xenograft (FIGS. 17A-B), 10 mg/kg ip. QD*5day, D10): 112.78%
- Tumor Growth Inhibition (TGI) (%) (A375 xenografts; A375 xenograft (FIGS. 17A-B), 10 mg/kg ip. QD*5day, D13): 103.12%
- Tumor Growth Inhibition (TGI) (%) (A375 xenografts; A375 xenograft (FIGS. 17A-B), 10 mg/kg ip. QD*5day, D17): 97.84%
- Tumor Growth Inhibition (TGI) (%) (A375 xenografts; A375 xenograft (FIGS. 17A-B), 10 mg/kg ip. QD*5day, D21): 95.59%
- Tumor Growth Inhibition (TGI) (%) (A375 xenografts; A-375 xenograft (FIGS. 21A-B), 1.5 mg/kg i.p. BID *21 days, D4): 3.60%
- Tumor Growth Inhibition (TGI) (%) (A375 xenografts; A-375 xenograft (FIGS. 21A-B), 1.5 mg/kg i.p. BID *21 days, D7): 18.11%
- Tumor Growth Inhibition (TGI) (%) (A375 xenografts; A-375 xenograft (FIGS. 21A-B), 1.5 mg/kg i.p. BID *21 days, D11): 30.05%
- Tumor Growth Inhibition (TGI) (%) (A375 xenografts; A-375 xenograft (FIGS. 21A-B), 1.5 mg/kg i.p. BID *21 days, D14): 30.28%
- Tumor Growth Inhibition (TGI) (%) (A375 xenografts; A-375 xenograft (FIGS. 21A-B), 1.5 mg/kg i.p. BID *21 days, D18): 42.80%
- Tumor Growth Inhibition (TGI) (%) (A375 xenografts; A-375 xenograft (FIGS. 21A-B), 1.5 mg/kg i.p. BID *21 days, D21): 37.88%
- Tumor Growth Inhibition (TGI) (%) (A375 xenografts; A-375 xenograft (FIGS. 21A-B), 3 mg/kg i.p. BID *21 days, D4): 38.68%
- Tumor Growth Inhibition (TGI) (%) (A375 xenografts; A-375 xenograft (FIGS. 21A-B), 3 mg/kg i.p. BID *21 days, D7): 46.64%
- Tumor Growth Inhibition (TGI) (%) (A375 xenografts; A-375 xenograft (FIGS. 21A-B), 3 mg/kg i.p. BID *21 days, D11): 94.46%
- Tumor Growth Inhibition (TGI) (%) (A375 xenografts; A-375 xenograft (FIGS. 21A-B), 3 mg/kg i.p. BID *21 days, D14): 89.78%
- Tumor Growth Inhibition (TGI) (%) (A375 xenografts; A-375 xenograft (FIGS. 21A-B), 3 mg/kg i.p. BID *21 days, D18): 81.80%
- Tumor Growth Inhibition (TGI) (%) (A375 xenografts; A-375 xenograft (FIGS. 21A-B), 3 mg/kg i.p. BID *21 days, D21): 71.33%

SMILES: CN(c1ccc(-c2ccc(-c3ccn(C)c(=O)c3)cc2O)nn1)[C@H]1C[C@]2(C)CC[C@](C)(C1)N2 [compound 168, 4-(4-(6-(((1R,3s,5S)-1,5-dimethyl-8-azabicyclo[3.2.1]octan-3-yl)(methyl)amino)pyridazin-3-yl)-3-hydroxyphenyl)-1-methylpyridin-2(1H)-one]
- Ratio NHDF/A673 IC50 (A673 cells): >500
